Measured values from the supplement of paper PMC10307832.

Key:
Assay in all cases: relative viability (nuclei count vs DMSO), 5 days (fraction); higher = more cells survive
Metformin + Tozasertib = compound: CN(C)C(=N)NC(=N)N [Metformin] + Cc1cc(Nc2cc(N3CCN(C)CC3)nc(Sc3ccc(NC(=O)C4CC4)cc3)n2)n[nH]1 [Tozasertib] (partner 0.1 µM)
Procedure, shortened: (§1)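 Lung cancer cell lines were seeded in 1536-well plates and dosed by pin tool the next day, with either a single drug or a fixed anchor-drug dose combined with five library-drug doses (not always all listed) spaced in √10 steps. Five days later, one step fixed the cells and stained their nuclei (final 0.05% Triton X-100, 1% formaldehyde, 1 ug/ml Hoechst), and nuclei were counted on 4× images. Relative viability is the nuclei count in treated wells divided by the count in vehicle wells, and each value is the median of duplicate plates.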

Metformin + OSI-027 = compound: CN(C)C(=N)NC(=N)N [Metformin] + COc1cccc2cc(-c3nc([C@H]4CC[C@H](C(=O)O)CC4)n4ncnc(N)c34)[nH]c12 [OSI-027] (partner 0.5 µM)
Procedure, shortened: as §1

Apatinib + Alpelisib = compound: N#CC1(c2ccc(NC(=O)c3cccnc3NCc3ccncc3)cc2)CCCC1 [Apatinib] + Cc1nc(NC(=O)N2CCC[C@H]2C(N)=O)sc1-c1ccnc(C(C)(C)C(F)(F)F)c1 [Alpelisib] (partner 2 µM)
Procedure, shortened: as §1

Metformin + AZD7762 = compound: CN(C)C(=N)NC(=N)N [Metformin] + NC(=O)Nc1cc(-c2cccc(F)c2)sc1C(=O)N[C@H]1CCCNC1 [AZD7762] (partner 0.2 µM)
Procedure, shortened: as §1

Cell Line | relative viability (Metformin + Tozasertib; first compound 10 µM) | relative viability (Metformin + Tozasertib; first compound 31.62 µM) | relative viability (Metformin + Tozasertib; first compound 100 µM) | relative viability (Metformin + Tozasertib; first compound 316.23 µM) | relative viability (Metformin + Tozasertib; first compound 1000 µM) | relative viability (Metformin + OSI-027; first compound 10 µM) | relative viability (Metformin + OSI-027; first compound 31.62 µM) | relative viability (Metformin + OSI-027; first compound 100 µM) | relative viability (Metformin + OSI-027; first compound 316.23 µM) | relative viability (Metformin + OSI-027; first compound 1000 µM) | relative viability (Apatinib + Alpelisib; first compound 0.08 µM) | relative viability (Apatinib + Alpelisib; first compound 0.253 µM) | relative viability (Apatinib + Alpelisib; first compound 0.8 µM) | relative viability (Apatinib + Alpelisib; first compound 2.53 µM) | relative viability (Apatinib + Alpelisib; first compound 8 µM) | relative viability (Metformin + AZD7762; first compound 10 µM) | relative viability (Metformin + AZD7762; first compound 31.62 µM) | relative viability (Metformin + AZD7762; first compound 100 µM) | relative viability (Metformin + AZD7762; first compound 316.23 µM) | relative viability (Metformin + AZD7762; first compound 1000 µM)
SK-MES-1 | 0.624 | 0.693 | 0.75 | 0.662 | 0.771 | 0.446 | 0.551 | 0.532 | 0.432 | 0.454 | 0.825 | 0.928 | 0.822 | 0.929 | 0.658 | – | – | – | – | –
NCI-H2170 | 0.731 | 0.733 | 0.779 | 0.758 | 0.693 | 0.566 | 0.52 | 0.683 | 0.673 | 0.711 | 0.884 | 0.776 | 0.8 | 0.743 | 0.706 | 0.74 | 0.836 | 0.869 | 0.745 | 0.913
NCI-H1648 | 0.474 | 0.656 | 0.859 | 0.706 | 0.742 | 0.24 | 0.264 | 0.264 | 0.285 | 0.279 | – | – | – | – | – | – | 0.575 | 0.681 | 0.574 | 0.663
NCI-H1915 | – | 0.452 | 0.466 | 0.416 | 0.489 | – | 0.666 | 0.651 | 0.56 | 0.665 | 1.08 | 1.09 | 1.04 | 0.916 | 0.81 | – | 0.713 | 0.686 | 0.669 | 0.707
HCC-366 | 0.142 | 0.141 | 0.111 | 0.135 | 0.163 | 0.757 | 0.967 | 0.991 | 0.808 | 1.28 | 0.417 | 0.46 | 0.4 | 0.308 | 0.265 | 0.233 | 0.299 | 0.362 | 0.265 | 0.371
HOP-62 | 0.283 | 0.373 | 0.316 | 0.285 | 0.289 | 0.827 | 0.903 | 0.992 | 0.678 | 0.861 | 0.727 | – | 1.15 | 0.801 | 0.713 | 0.248 | 0.41 | 0.416 | 0.325 | 0.492
RERF-LC-KJ | 0.329 | 0.273 | 0.403 | 0.277 | 0.352 | 0.521 | 0.503 | 0.492 | 0.394 | 0.415 | 0.857 | 0.875 | 0.779 | 0.751 | 0.823 | 0.703 | 0.927 | 0.572 | 0.799 | 1
NCI-H2347 | 0.627 | 0.51 | – | 0.492 | 0.63 | 0.416 | 0.486 | – | 0.466 | 0.415 | 0.943 | 1.02 | 1 | 1.02 | 0.944 | 0.662 | 0.892 | 0.856 | 0.771 | 0.862
PC-14 | 0.618 | 0.714 | 0.673 | 0.674 | 0.814 | 0.648 | 0.929 | 0.657 | 0.607 | 0.574 | 0.935 | 0.861 | 0.876 | 0.875 | 0.838 | 0.31 | 0.343 | 0.383 | 0.304 | 0.392
IA-LM | – | – | – | – | – | – | – | – | – | – | 0.793 | 0.673 | 0.665 | 0.558 | 0.337 | – | – | – | – | –
NCI-H727 | 0.564 | 0.821 | 0.606 | 0.501 | 0.637 | 0.543 | 0.726 | 0.736 | 0.545 | 0.48 | 0.64 | 0.625 | 0.53 | 0.512 | 0.506 | 0.655 | 0.624 | 0.565 | – | 0.525
NCI-H1975 | 0.888 | 0.905 | 0.872 | 0.78 | 1.08 | 0.96 | 1.08 | 0.748 | 0.891 | 0.949 | 0.662 | 0.691 | 0.508 | 0.562 | 0.576 | 0.772 | 0.734 | 0.681 | 0.689 | 0.637
NCI-H2085 | 0.85 | 0.746 | 0.896 | 0.773 | 0.841 | 0.649 | 0.54 | 0.721 | 0.718 | 0.703 | 1.05 | 0.931 | 0.931 | 0.858 | 0.792 | 0.873 | 0.99 | 0.979 | 0.893 | 0.989
Calu-6 | – | – | – | – | – | – | – | – | – | – | 1.02 | 1.12 | 0.956 | 0.895 | 0.73 | – | – | – | – | –
LC-2-ad | – | 0.412 | 0.524 | 0.469 | 0.506 | – | 0.69 | 0.693 | 0.531 | 0.588 | 0.9 | 0.798 | 0.802 | 0.824 | 0.652 | – | 0.885 | 0.906 | 0.811 | 0.87
SW 900 | 0.476 | 0.482 | 0.658 | 0.461 | 0.657 | 0.597 | 0.781 | 0.617 | 0.544 | 0.538 | – | – | – | – | – | 0.666 | 0.624 | – | 0.537 | 0.761
HCC-827 | – | 0.422 | 0.442 | 0.387 | 0.439 | – | 0.714 | 0.704 | 0.586 | 0.73 | 0.999 | 0.991 | 0.831 | 0.825 | 0.469 | 0.245 | 0.174 | 0.257 | 0.217 | 0.36
EMC-BAC-2 | 0.29 | 0.307 | 0.317 | 0.289 | 0.32 | 0.419 | 0.397 | 0.365 | 0.399 | 0.356 | 0.759 | 0.785 | 0.76 | 0.751 | 0.678 | 1.14 | 1.26 | 1.17 | 1.22 | 1
NCI-H322M | 0.48 | 0.454 | 0.437 | 0.432 | 0.419 | 0.54 | 0.597 | 0.604 | 0.457 | 0.46 | 0.782 | 0.744 | 0.766 | 0.89 | 0.782 | 0.569 | 0.641 | 0.649 | 0.464 | 0.566
